Source: the supplement of paper PMC11451515

Assays:
Details in all cases: 48 h
NOMO1 [1] = assay: cell viability relative to DMSO control; higher = less cytotoxic
How it was run: (§1)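 Before seeding, each leukemia line was adapted for at least four passages in each medium. NOMO1 or SEM cells (500 cells/well) and P12-Ichikawa cells (1000 cells/well) went into 1536-well plates at 5 μl, then received library compounds in DMSO by pin dosing across 11 threefold concentrations, 47 μM to 0.79 nM. Readout was CellTiter-Glo One luminescence after 48 h at 37°C, and viability is given as a per-plate percentage of DMSO wells, with cell-free wells as background.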

P12-Ichikawa [2] = assay: as above
How it was run: as §1

SEM cells [3] = assay: as above
How it was run: as §1

NOMO1 [4] = assay: AUC of viability dose-response curve (% viability x log10 dose units); higher = less sensitive
How it was run: (§2)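 Leukemia cells adapted to each medium were seeded in 1536-well plates (500 or 1000 cells/well). They were dosed with library compounds in DMSO at 11 threefold doses, 47 μM to 0.79 nM, for 48 h at 37°C. CellTiter-Glo One luminescence was normalised per plate to DMSO and cell-free wells. Area under the curve was integrated by trapezoidal rule over log10 doses on a four-parameter log-logistic fit; curves exceeding full viability were scaled and curves failing quality control removed.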

P12-Ichikawa [5] = assay: as above
How it was run: as §2

SEM cells [6] = assay: as above
How it was run: as §2

O=C([O-])C(O)Cc1ccc(O)c(O)c1 (stereo not drawn)
cell viability [%]
Details	NOMO1 [1]	P12-Ichikawa [2]	SEM cells [3]
HPLM + 10% dialyzed FBS, 0.000781 µM	100	109	93.4
HPLM + 10% dialyzed FBS, 0.00234 µM	91	107	111
HPLM + 10% dialyzed FBS, 0.00702 µM	108	99.1	93.6
HPLM + 10% dialyzed FBS, 0.0211 µM	95.5	110	95.6
HPLM + 10% dialyzed FBS, 0.0632 µM	116	111	96
HPLM + 10% dialyzed FBS, 0.19 µM	106	106	81.2
HPLM + 10% dialyzed FBS, 0.569 µM	99.4	104	79.2
HPLM + 10% dialyzed FBS, 1.71 µM	100	93.7	76.4
HPLM + 10% dialyzed FBS, 5.12 µM	90.8	95.7	71.2
HPLM + 10% dialyzed FBS, 15.4 µM	74.9	90.2	74.2
HPLM + 10% dialyzed FBS, 46.1 µM	60.1	90.1	55
RPMI 5 mM glucose + 10% FBS, 0.000781 µM	91.8	101	102
RPMI 5 mM glucose + 10% FBS, 0.00234 µM	83.7	96.6	111
RPMI 5 mM glucose + 10% FBS, 0.00702 µM	87.1	107	105
RPMI 5 mM glucose + 10% FBS, 0.0211 µM	96.5	99.6	96.8
RPMI 5 mM glucose + 10% FBS, 0.0632 µM	91.2	99.4	107
RPMI 5 mM glucose + 10% FBS, 0.19 µM	91.8	98.3	96.3
RPMI 5 mM glucose + 10% FBS, 0.569 µM	84	92.6	87.3
RPMI 5 mM glucose + 10% FBS, 1.71 µM	92.5	90.2	76.2
RPMI 5 mM glucose + 10% FBS, 5.12 µM	87.4	99.9	88.5
RPMI 5 mM glucose + 10% FBS, 15.4 µM	77.9	81.8	75.7
RPMI 5 mM glucose + 10% FBS, 46.1 µM	64.3	83.3	53.4
RPMI 5 mM glucose + 10% dialyzed FBS, 0.000781 µM	96.7	95	93.7
RPMI 5 mM glucose + 10% dialyzed FBS, 0.00234 µM	102	99.2	109
RPMI 5 mM glucose + 10% dialyzed FBS, 0.00702 µM	104	99.9	101
RPMI 5 mM glucose + 10% dialyzed FBS, 0.0211 µM	100	95.5	96
RPMI 5 mM glucose + 10% dialyzed FBS, 0.0632 µM	96.4	92.3	79.8
RPMI 5 mM glucose + 10% dialyzed FBS, 0.19 µM	91.4	96.8	96.3
RPMI 5 mM glucose + 10% dialyzed FBS, 0.569 µM	100	93.2	69
RPMI 5 mM glucose + 10% dialyzed FBS, 1.71 µM	84.4	87.9	76.8
RPMI 5 mM glucose + 10% dialyzed FBS, 5.12 µM	81.4	89	60.4
RPMI 5 mM glucose + 10% dialyzed FBS, 15.4 µM	78.5	74.6	74.5
RPMI 5 mM glucose + 10% dialyzed FBS, 46.1 µM	65.4	83.5	50.4

AUC of viability dose-response curve
Details	NOMO1 [4]	P12-Ichikawa [5]	SEM cells [6]
HPLM + 10% dialyzed FBS	447	453	398
RPMI 5 mM glucose + 10% FBS	416	452	413
RPMI 5 mM glucose + 10% dialyzed FBS	434	438	387
